Test results as given in patent publication US6204293A, “Inhibitors of protein isoprenyl transferases” (University of Pittsburgh, priority 1998, dated 2001).
Counter-ions that a name gives are not always drawn.

What follows are molecules tested against T1, Rat brain protein farnesyltransferase (Rattus norvegicus, UniProt Q02293+Q04631) (assay: % inhibition of farnesylation, scintillation proximity assay with biotin-K Ras B fragment). Conditions: Table 2; 1 × 10^-6 M.
T1 construct: Rat brain protein farnesyltransferase activity is measured; from tissue; host or cells: rat brain
Format: biochemical
Procedure, shortened: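 Rat brain enzyme, purified through three steps, in a scintillation proximity assay kit with biotin-K Ras B fragment substrate at 0.1 mM final. Value is % inhibition of farnesylation.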

T1 sequence (Q02293 whole entry, the tested form may be a part, one chain of several): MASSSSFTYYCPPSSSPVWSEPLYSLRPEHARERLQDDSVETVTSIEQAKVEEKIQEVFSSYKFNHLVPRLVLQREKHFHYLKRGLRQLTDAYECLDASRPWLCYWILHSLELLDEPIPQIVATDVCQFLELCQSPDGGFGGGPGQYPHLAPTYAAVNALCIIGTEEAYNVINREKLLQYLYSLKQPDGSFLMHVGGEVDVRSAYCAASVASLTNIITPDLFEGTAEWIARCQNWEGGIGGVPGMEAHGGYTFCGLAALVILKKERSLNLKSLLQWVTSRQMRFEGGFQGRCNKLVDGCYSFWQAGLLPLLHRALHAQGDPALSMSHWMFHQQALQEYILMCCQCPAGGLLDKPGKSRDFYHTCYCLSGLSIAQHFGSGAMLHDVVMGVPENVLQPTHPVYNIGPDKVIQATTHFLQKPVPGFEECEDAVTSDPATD

Going from `CSCC[C@H](NC(=O)c1ccc(NC(=O)OCc2cncs2)cc1-c1ccccc1C)C(=O)O` [Example 902] to `CSCC[C@H](NC(=O)c1ccc(CN(C(=O)c2ccccc2)C(CC2CCCCC2)CC2CCCCC2)cc1-c1ccccc1C)C(=O)O` [Example 910], the “% inhibition at 1 × 10^-6 M” value falls from 85% to 42%.

Compared with `CSCC[C@H](NC(=O)c1ccc(CN(CC(C)C)C(CC2CCCCC2)CC2CCCCC2)cc1-c1ccccc1C)C(=O)O` [Example 908], `CSCC[C@H](NC(=O)c1ccc(CN(C(CC2CCCCC2)CC2CCCCC2)S(=O)(=O)c2ccccc2)cc1-c1ccccc1C)C(=O)O` [Example 911] is lower in “% inhibition at 1 × 10^-6 M” value: 88% for the first, 65% for the second.

Same assay, conditions: Table 3; 1 × 10^-7 M

First: CCSC[C@H](CC(C)C)N(C)Cc1ccc(C(=O)N[C@@H](CCSC)C(=O)O)c(-c2ccccc2C)c1 [Example 906]
Second: CCCCN(CCCC)Cc1ccc(C(=O)N[C@@H](CCSC)C(=O)O)c(-c2ccccc2C)c1 [Example 917]
The “% inhibition at 1 × 10^-7 M” value of the first is higher: 88% for the first, 78% for the second.

Going from `CCCCN(CCCC)C(=O)CNCc1ccc(C(=O)N[C@@H](CCSC)C(=O)O)c(-c2ccccc2C)c1` [Example 912] to `CCCCN(CCCC)C(=O)CN(C)Cc1ccc(C(=O)N[C@@H](CCSC)C(=O)O)c(-c2ccccc2C)c1` [Example 913], the “% inhibition at 1 × 10^-7 M” value rises from 85% to 89%.

Compared with `CSCC[C@H](NC(=O)c1ccc(CNCC(=O)N(Cc2ccccc2)Cc2ccccc2)cc1-c1ccccc1C)C(=O)O` [Example 914], `CCCC(CCC)NOCc1ccc(C(=O)N[C@@H](CCSC)C(=O)O)c(-c2ccccc2C)c1` [Example 929] is lower in “% inhibition at 1 × 10^-7 M” value: 91% for the first, 81% for the second.

Same assay, conditions: Table 4; 1 × 10^-8 M

Compared with `CCSC[C@H](CC(C)C)NCc1ccc(C(=O)N[C@@H](CCSC)C(=O)O)c(-c2ccccc2C)c1` [Example 905], `CCCCN(CCc1ccccc1)Cc1ccc(C(=O)N[C@@H](CCSC)C(=O)O)c(-c2ccccc2C)c1` [Example 928] is lower in “% inhibition at 1 × 10^-8 M” value: 86% for the first, 84% for the second.

`CSCC[C@H](NC(=O)c1ccc(CN(C)C(CC2CCCCC2)CC2CCCCC2)cc1-c1ccccc1C)C(=O)O` [Example 907] and `CSCC[C@H](NC(=O)c1ccc(CN(C(C)=O)C(CC2CCCCC2)CC2CCCCC2)cc1-c1ccccc1C)C(=O)O` [Example 909] are the same in “% inhibition at 1 × 10^-8 M” value: 79% for the first, 79% for the second.

Going from `CCCCS(=O)(=O)N(CCC1CCCCC1)Cc1ccc(C(=O)N[C@@H](CCSC)C(=O)O)c(-c2ccccc2C)c1` [Example 916] to `CCCCS(=O)(=O)N(CCCc1ccccc1)Cc1ccc(C(=O)N[C@@H](CCSC)C(=O)O)c(-c2ccccc2C)c1` [Example 927], the “% inhibition at 1 × 10^-8 M” value falls from 96% to 74%.

Same assay, conditions: read-out: % inhibition at 1 × 10^-6 M; Table 2; 1 × 10^-6 M

First: CSCC[C@H](NC(=O)c1cc(Cc2ccccc2)c(COCc2ccccc2)cc1-c1ccccc1C)C(=O)O [Example 923, N-[5-Benzyl-4-benzyloxymethyl-2-(2-methylphenyl)benzoyl]methionine]
Second: CSCC[C@H](NC(=O)c1cc(Cc2ccccc2)c(COCCCc2ccccc2)cc1-c1ccccc1C)C(=O)O [Example 925]
The inhibition at 1 µM of the first is lower: 78% for the first, 87% for the second.

`CSCC[C@H](NC(=O)c1cc(Cc2ccccc2)c(COCc2ccco2)cc1-c1ccccc1C)C(=O)O` [Example 924] showed an inhibition at 1 µM of 77%.

Same assay, conditions: read-out: % inhibition at 1 × 10^-7 M; Table 3; 1 × 10^-7 M

`CSCC[C@H](NC(=O)c1ccc(COCc2cnc(-c3ccc(F)cc3)s2)cc1-c1ccccc1C)C(=O)O` [Example 900, N-[4-(2-(4-fluorophenylthiazol-5-ylmethoxymethyl)-2-(2-methylphenyl)benzoyl]methioninelithium salt] was tested, and the inhibition at 0.1 µM was 95%.

Same assay, conditions: read-out: % inhibition at 1 × 10^-8 M

Compared with `CSCC[C@H](NC(=O)c1ccc(COCc2cnc(-c3ccc(Cl)cc3)s2)cc1-c1ccccc1C)C(=O)O` [Example 901, N-[4-(2-(4-chlorophenyl)thiazol-5-ylmethoxymethyl)-2-(2-methylphenyl)benzoyl]methionine lithium salt], `CSCC[C@H](NC(=O)c1ccc(COCc2cc(-c3ccc(Cl)cc3)co2)cc1-c1ccccc1C)C(=O)O` [Example 904, N-[4-(4-(4-chlorophenyl)furan-2-ylmethoxymethyl)-2-(2-methylphenyl)benzoyl]methionine lithium salt] is higher in inhibition at 0.01 µM: 84% for the first, 85% for the second.
